Assay type in all cases: functional
In experiment [1] the target is Benomyl/methotrexate resistance protein (Candida albicans, UniProt P28873). Nature of the experiment: Candida albicans Mdr1 pump inhibition curves – singleplex, Cherry Pick1 hits, dose response (AID 588608).
The target in experiment [2] is Multidrug resistance protein CDR2 (Candida albicans (strain SC5314 / ATCC MYA-2876) (Yeast), UniProt P78595). Nature of the experiment: inhibition of Nile Red efflux via Candida CDR2 – S. cerevisiae AD1-8u, singleplex, Cherry Pick1 hits, dose response (AID 588604).
Experiment [3] addresses Multidrug resistance protein CDR1 (Candida albicans, UniProt P43071). Nature of the experiment: inhibition of Nile Red efflux via Candida CDR1 – S. cerevisiae AD1-8u, singleplex, Cherry Pick1 hits, dose response (AID 588606).
Experiment [4] deals with Melanin-concentrating hormone receptor 1 (Homo sapiens, UniProt Q99705). The experiment in a line: Late-stage fluorescence-based counterscreen for antagonists of the G-protein coupled receptor 7 (GPR7): cell-based dose response assay to identify antagonists of the melanin-concentrating hormone receptor 1 (MCHR1) Set 5.
Experiment [5] concerns the target Neuropeptides B/W receptor type 1 (Homo sapiens, UniProt P48145). Nature of the experiment: human NPBW1 receptor blockade, IC50 – cell-based, fluorescence, dose response, set 5, late-stage follow-up (AID 588566).
For experiment [6], the target named is Serine/threonine-protein kinase TBK1 (Homo sapiens, UniProt Q9UHD2). Nature of the experiment: Navigating the Kinome. Panel member name: TBK1.
In the next experiment the target is Aurora kinase B (Homo sapiens, UniProt Q96GD4).
For experiment [7], the target named is Dual specificity protein kinase CLK4 (Homo sapiens, UniProt Q9HAZ1).
In a further experiment the target is LIM domain kinase 1 (Homo sapiens, UniProt P53667). The experiment in a line: Navigating the Kinome. Panel member name: LIMK1.
The target of experiment [8] is Macrophage colony-stimulating factor 1 receptor (Homo sapiens, UniProt P07333).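 Note: value comes from the Navigating the Kinome screening panel, CSF1R member.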
Experiment [9] addresses Leukocyte tyrosine kinase receptor (Homo sapiens, UniProt P29376). Nature of the experiment: Navigating the Kinome. Panel member name: LTK.
Experiment [10] addresses Death-associated protein kinase 3 (Homo sapiens, UniProt O43293).
Experiment [11] deals with Fibroblast growth factor receptor 1 (Homo sapiens, UniProt P11362).
Experiment [12] deals with Vascular endothelial growth factor receptor 2 (Homo sapiens, UniProt P35968).
The target of experiment [13] is T1, Serine/threonine-protein kinase Chk1 (Homo sapiens, UniProt O14757).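 Note: measured as one member of a kinome-wide kinase profiling panel.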
T1 sequence (O14757 whole entry): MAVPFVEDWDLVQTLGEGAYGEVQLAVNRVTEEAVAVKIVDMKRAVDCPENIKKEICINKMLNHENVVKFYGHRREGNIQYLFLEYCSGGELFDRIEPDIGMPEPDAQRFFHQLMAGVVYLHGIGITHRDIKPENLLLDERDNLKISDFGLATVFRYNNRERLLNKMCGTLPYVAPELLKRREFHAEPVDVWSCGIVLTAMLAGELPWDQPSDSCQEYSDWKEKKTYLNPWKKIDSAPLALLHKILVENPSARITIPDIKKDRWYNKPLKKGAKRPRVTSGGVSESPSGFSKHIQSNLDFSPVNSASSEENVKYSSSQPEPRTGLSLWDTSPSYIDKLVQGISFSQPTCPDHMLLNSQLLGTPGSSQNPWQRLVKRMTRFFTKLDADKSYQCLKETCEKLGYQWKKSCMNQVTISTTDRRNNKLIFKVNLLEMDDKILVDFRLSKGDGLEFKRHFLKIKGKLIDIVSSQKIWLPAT

Experiment [14] has as its target Cyclin-dependent kinase 8 (Homo sapiens, UniProt P49336). The experiment in a line: Navigating the Kinome. Panel member name: CDK8.
Experiment [15] deals with Leucine-rich repeat serine/threonine-protein kinase 2 (Homo sapiens, UniProt Q5S007).
The target of experiment [16] is ALK tyrosine kinase receptor (Homo sapiens, UniProt Q9UM73).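 Note: ALK tested as one member of a kinase panel screen.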
The target in experiment [17] is Cyclin-dependent kinase 7 (Homo sapiens, UniProt P50613).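 Note: value comes from a kinome-wide kinase profiling panel in which CDK7 is one member.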
The target in experiment [18] is Vascular endothelial growth factor receptor 1 (Homo sapiens, UniProt P17948).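 Note: measured within a kinome-wide profiling panel, FLT1 as the panel member.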
Experiment [19] concerns the target T2, Tyrosine-protein kinase receptor TYRO3 (Homo sapiens, UniProt Q06418).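 Note: TYRO3 value obtained as one member of a kinome-wide profiling panel.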
T2 sequence (Q06418 whole entry): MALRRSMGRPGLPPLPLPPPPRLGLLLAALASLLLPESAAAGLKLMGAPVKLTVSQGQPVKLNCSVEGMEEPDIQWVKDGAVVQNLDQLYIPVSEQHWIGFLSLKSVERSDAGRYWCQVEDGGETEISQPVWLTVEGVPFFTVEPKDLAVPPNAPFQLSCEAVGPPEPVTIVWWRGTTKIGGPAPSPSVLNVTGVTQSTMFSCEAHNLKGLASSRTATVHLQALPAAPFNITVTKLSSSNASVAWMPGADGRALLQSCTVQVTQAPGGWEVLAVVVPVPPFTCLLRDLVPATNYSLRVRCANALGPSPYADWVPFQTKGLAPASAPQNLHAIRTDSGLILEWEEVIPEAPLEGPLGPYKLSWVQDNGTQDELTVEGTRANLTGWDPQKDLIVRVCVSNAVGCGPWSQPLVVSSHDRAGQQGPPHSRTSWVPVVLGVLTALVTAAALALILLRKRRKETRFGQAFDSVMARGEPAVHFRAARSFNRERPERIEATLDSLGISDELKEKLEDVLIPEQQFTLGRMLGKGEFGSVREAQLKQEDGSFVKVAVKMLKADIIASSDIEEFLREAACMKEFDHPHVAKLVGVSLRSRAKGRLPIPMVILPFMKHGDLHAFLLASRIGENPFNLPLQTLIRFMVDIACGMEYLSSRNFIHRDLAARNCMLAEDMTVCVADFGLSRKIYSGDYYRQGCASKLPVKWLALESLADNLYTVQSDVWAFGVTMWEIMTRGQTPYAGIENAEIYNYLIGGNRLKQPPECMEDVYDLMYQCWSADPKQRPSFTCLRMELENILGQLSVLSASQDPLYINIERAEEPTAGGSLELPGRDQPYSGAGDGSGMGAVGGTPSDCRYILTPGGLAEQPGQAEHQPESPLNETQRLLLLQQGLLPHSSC

Experiment [20] deals with Mitogen-activated protein kinase kinase kinase kinase 4 (Homo sapiens, UniProt O95819).
The target in experiment [21] is Dual specificity tyrosine-phosphorylation-regulated kinase 1B (Homo sapiens, UniProt Q9Y463). Nature of the experiment: Navigating the Kinome. Panel member name: DYRK1B.
In experiment [22] the target is Proto-oncogene tyrosine-protein kinase receptor Ret (Homo sapiens, UniProt P07949).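 Note: measured within a kinome-wide profiling panel, RET as the panel member.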
Experiment [23] concerns the target Casein kinase I isoform alpha (Homo sapiens, UniProt P48729).
The target of experiment [24] is Ribosomal protein S6 kinase alpha-3 (Homo sapiens, UniProt P51812).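 Note: measured within a kinome-wide profiling panel.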
Experiment [25] concerns the target Cyclin-dependent kinase 5 (Homo sapiens, UniProt Q00535).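 Note: CDK5 measured as one member of a kinase profiling panel.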
In experiment [26] the target is T3, Serine/threonine-protein kinase D3 (Homo sapiens, UniProt O94806).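 Note: determined within a kinase panel screen, with PRKCN as the panel member.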
T3 sequence (O94806 whole entry): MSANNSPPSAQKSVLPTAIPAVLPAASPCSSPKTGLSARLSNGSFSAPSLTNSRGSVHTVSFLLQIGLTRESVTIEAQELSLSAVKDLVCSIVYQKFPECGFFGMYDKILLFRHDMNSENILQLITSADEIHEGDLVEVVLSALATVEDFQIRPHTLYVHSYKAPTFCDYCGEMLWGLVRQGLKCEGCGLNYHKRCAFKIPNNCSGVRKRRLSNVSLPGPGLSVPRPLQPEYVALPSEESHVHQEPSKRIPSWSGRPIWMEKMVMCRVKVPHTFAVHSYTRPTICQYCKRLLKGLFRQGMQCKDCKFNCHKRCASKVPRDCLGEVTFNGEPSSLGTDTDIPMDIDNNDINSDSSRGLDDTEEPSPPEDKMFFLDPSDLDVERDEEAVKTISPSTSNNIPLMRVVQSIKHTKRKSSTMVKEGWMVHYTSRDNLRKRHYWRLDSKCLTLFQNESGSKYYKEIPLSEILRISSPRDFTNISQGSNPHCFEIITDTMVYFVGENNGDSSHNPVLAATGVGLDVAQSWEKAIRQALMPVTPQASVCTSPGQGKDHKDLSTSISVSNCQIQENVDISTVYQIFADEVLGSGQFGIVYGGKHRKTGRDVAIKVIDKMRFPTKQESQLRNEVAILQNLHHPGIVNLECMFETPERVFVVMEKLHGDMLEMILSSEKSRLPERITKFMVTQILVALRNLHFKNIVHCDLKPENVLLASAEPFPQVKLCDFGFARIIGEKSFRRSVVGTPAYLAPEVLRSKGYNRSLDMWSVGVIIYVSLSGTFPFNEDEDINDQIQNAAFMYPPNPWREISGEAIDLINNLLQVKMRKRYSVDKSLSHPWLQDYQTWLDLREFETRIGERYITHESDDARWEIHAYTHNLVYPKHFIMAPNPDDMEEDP

Molecules are shown by their SMILES. The source made the active and inactive calls.

Chain of Vascular endothelial growth factor receptor 2 (P35968 whole entry): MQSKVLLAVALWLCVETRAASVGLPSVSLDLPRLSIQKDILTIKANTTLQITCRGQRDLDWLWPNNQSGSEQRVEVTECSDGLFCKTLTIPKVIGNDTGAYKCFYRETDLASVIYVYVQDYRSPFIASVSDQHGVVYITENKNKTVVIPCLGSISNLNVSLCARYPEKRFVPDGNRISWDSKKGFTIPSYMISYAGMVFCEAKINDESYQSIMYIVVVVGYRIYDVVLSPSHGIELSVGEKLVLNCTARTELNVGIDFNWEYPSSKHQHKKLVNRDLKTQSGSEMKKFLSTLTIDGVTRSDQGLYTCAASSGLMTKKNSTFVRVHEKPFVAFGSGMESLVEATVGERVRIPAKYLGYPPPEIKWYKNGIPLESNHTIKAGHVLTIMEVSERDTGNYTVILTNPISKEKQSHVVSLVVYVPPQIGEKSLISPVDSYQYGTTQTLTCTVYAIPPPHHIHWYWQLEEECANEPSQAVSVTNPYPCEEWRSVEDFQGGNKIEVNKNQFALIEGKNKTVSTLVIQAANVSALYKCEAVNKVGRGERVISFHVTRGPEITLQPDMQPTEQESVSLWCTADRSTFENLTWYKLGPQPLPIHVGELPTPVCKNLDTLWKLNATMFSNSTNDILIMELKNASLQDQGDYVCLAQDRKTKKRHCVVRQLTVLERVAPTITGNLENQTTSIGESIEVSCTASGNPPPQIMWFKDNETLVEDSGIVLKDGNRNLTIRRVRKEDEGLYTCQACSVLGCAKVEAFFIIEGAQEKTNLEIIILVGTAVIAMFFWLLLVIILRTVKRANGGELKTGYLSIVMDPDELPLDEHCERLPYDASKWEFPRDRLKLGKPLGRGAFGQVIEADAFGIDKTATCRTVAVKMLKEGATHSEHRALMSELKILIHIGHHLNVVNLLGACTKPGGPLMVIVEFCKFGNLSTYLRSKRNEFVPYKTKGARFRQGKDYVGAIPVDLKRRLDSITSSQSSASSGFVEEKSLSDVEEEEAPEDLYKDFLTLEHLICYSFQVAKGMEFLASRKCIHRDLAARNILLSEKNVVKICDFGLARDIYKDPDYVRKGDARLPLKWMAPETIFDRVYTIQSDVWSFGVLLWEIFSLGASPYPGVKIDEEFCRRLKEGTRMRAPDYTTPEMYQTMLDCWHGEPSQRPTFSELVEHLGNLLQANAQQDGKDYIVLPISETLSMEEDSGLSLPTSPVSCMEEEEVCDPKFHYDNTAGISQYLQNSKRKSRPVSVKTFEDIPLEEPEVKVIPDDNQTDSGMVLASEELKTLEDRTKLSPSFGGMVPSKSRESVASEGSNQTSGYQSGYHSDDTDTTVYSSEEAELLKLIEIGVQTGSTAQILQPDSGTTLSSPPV
Chain of Cyclin-dependent kinase 8 (P49336 whole entry): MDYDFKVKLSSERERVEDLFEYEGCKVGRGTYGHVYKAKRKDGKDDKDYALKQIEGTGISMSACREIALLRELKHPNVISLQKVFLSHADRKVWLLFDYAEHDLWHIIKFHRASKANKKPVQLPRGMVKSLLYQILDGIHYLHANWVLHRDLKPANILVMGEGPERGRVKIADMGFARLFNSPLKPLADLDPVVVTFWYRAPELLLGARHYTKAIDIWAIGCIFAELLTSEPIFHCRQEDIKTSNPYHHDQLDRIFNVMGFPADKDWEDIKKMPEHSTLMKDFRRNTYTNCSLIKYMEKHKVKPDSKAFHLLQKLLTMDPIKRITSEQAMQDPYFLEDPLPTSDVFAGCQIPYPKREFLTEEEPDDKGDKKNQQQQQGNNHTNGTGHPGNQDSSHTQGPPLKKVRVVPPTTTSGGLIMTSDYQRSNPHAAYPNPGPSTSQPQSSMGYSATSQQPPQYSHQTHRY
Chain of ALK tyrosine kinase receptor (Q9UM73 whole entry): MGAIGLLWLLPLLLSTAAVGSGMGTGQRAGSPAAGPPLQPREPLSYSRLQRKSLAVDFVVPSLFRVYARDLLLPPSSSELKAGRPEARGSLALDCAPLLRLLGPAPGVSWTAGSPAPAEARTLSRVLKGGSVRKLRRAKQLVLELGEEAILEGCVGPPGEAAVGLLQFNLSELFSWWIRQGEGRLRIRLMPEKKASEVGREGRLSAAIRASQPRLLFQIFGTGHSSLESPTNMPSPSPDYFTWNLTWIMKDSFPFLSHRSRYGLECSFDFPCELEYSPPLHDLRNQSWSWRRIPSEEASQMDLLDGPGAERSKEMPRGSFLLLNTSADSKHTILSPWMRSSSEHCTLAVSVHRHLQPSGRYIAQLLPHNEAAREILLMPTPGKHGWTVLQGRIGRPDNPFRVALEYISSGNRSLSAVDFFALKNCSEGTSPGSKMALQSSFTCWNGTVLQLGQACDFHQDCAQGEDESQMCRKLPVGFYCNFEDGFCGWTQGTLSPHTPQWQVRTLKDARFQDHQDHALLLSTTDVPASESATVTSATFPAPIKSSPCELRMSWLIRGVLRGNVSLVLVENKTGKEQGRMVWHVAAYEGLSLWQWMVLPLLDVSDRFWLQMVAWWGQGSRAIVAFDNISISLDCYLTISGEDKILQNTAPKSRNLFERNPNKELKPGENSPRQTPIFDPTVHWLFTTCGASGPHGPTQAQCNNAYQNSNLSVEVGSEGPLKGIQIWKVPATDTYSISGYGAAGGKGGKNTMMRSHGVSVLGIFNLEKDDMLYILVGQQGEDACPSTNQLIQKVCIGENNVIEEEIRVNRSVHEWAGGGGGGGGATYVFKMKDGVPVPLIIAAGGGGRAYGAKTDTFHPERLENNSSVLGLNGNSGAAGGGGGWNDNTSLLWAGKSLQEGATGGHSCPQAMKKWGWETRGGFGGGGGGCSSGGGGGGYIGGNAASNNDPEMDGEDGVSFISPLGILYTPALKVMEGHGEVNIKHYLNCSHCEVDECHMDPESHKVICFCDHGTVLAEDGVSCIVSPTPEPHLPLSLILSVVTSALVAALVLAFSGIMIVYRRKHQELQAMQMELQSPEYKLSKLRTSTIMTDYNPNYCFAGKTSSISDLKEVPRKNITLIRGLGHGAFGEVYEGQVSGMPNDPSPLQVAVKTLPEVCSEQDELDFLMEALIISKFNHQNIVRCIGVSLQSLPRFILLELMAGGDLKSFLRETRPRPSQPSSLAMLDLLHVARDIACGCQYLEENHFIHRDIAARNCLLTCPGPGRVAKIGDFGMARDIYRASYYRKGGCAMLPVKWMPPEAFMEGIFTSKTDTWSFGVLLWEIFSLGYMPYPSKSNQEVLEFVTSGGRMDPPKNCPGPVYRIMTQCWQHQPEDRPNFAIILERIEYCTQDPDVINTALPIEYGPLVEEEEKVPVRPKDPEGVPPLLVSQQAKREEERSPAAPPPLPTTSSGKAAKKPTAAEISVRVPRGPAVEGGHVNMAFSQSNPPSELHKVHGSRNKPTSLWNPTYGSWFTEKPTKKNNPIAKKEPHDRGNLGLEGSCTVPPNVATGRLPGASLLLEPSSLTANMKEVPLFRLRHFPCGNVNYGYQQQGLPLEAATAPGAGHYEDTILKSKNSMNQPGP
Chain of Casein kinase I isoform alpha (P48729 whole entry, canonical isoform): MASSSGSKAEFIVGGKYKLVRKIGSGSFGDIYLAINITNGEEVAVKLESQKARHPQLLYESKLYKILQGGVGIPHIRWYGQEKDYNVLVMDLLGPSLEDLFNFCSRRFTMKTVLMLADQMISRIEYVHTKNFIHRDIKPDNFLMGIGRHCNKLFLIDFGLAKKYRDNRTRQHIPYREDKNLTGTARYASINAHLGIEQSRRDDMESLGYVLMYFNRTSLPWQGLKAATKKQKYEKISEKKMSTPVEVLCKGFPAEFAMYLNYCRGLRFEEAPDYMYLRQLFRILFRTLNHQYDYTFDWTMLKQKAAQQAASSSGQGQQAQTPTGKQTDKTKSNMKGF
Chain of Proto-oncogene tyrosine-protein kinase receptor Ret (P07949 whole entry, canonical isoform): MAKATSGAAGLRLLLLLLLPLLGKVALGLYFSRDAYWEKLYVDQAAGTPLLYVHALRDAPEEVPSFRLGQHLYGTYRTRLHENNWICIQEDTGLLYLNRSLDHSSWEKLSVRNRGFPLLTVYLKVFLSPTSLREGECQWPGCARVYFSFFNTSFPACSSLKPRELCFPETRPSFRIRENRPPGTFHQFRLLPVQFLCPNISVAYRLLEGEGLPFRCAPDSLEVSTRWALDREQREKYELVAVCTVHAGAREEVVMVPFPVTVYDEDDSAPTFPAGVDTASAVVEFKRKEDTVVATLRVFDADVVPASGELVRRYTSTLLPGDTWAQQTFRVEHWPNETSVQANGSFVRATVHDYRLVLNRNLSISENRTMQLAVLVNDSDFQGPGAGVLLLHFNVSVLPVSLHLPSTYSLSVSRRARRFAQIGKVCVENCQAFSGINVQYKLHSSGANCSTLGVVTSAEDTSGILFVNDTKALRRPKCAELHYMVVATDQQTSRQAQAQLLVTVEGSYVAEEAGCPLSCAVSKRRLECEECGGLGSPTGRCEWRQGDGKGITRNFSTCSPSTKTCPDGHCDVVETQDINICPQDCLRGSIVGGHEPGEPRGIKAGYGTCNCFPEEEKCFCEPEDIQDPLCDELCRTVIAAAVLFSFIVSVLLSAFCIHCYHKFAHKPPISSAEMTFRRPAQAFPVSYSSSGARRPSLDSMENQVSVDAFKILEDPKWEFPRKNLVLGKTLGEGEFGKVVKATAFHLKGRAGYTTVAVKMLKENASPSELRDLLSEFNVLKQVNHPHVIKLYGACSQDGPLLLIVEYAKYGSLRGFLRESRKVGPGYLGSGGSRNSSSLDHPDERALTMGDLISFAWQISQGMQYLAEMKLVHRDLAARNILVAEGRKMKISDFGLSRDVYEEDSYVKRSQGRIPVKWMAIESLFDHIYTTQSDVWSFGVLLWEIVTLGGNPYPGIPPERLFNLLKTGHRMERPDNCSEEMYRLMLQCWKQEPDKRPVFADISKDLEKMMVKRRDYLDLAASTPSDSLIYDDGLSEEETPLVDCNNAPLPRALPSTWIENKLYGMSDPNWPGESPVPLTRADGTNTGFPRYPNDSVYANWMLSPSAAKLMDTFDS

Turning to `COc1cc(OC)cc(-c2sc3ccc(OC)cc3c2-c2ccc(OCCN3CCOCC3)cc2)c1`, the EC50 in [1] was 13.7 µM (active); in experiment [2], 38.5 µM (active); in [3], 11.3 µM (active).
On to `O=c1c(Cl)c(Oc2ccc3c(c2)OCO3)cnn1Cc1cccc2ccccc12`, for which the IC50 in experiment [4] is 17.8 µM (inactive); in experiment [5] it was 3.3 µM (active).
As for `Nc1ncnc2c1C(=O)NCCN2`, the Ki in experiment [6] is 50.1 µM (active); at Aurora kinase B, 31.6 µM (active); in experiment [7], 25.1 µM (active); at LIM domain kinase 1 it was 20 µM (active); in [8], 79.4 µM (active); in experiment [9], 39.8 µM (active). The Ki in [10] was 15.8 µM (active); in [11] it was 100 µM (active); in experiment [12], 12.6 µM (active); in [13], 25.1 µM (active); in experiment [14], 100 µM (active); in experiment [15], 31.6 µM (active). The Ki in experiment [16] was 63.1 µM (active); in experiment [17], 63.1 µM (active); in experiment [18], 25.1 µM (active); in experiment [19], 63.1 µM (active); in experiment [20], 31.6 µM (active); in [21], 39.8 µM (active). Besides, the Ki in experiment [22] was 31.6 µM (active); in [23], 20 µM (active); in experiment [24] it was 79.4 µM (active); in experiment [25] it was 50.1 µM (active); in experiment [26] it was 100 µM (active).
